Values of other authors in patent US6903092B2, “Naphthamide neurokinin antagonists for use as medicaments” (priority 2000, dated 2005).
Read-outs that look alike come from different tables or passages of the source. Square brackets hold non-standard residues; d marks the D form. Peptide text beside a SMILES is read from it. * marks the point of attachment. Cyclohexanecarbonyl = O=C(C1CCCCC1)*

Columns and labels:
[1] = Vassout et al, Neuropeptides 26/S1: 38, 1994; only at 30 mg/kg bid
[2] = not given; remark: listed apart in the source
[3] = not given; remark: listed apart in the source
Marmoset = conditions: Walsh et al., Psychopharmacology 121: 186-191, 1995
[4] = Vassout et al, Neuropeptides 26/S1: 38, 1994
[5] = Teixeira et al., Eur J Pharmacol 311(1): 7-14, 1996
[6] = Stratton et al., Eur. J. Pharmacol. 250: R11-12, 1993
[7] = Walsh et al., Psychopharmacology 121: 186-191, 1995

| SMILES | Outcome, Elevated plus-maze [5] | Outcome, Light-dark box [3, 6] | Outcome, Light-dark box [3, 7] | Outcome, Marmoset human intruder (Marmoset) | also measured |
| --- | --- | --- | --- | --- | --- |
| Cc1cc(C)cc(C(=O)N2CC[C@H](NCc3ccnc4ccccc34)C[C@H]2Cc2ccccc2)c1 [CGP 49823] |  |  |  |  | Outcome, Elevated plus-maze [4]: inactive; Outcome, Forced swim test (depression model) [1]: antidepressant; Outcome, Social interaction ([2]; File, Pharm Bio B 58(3): 747-752, 1997): anxiolytic; Outcome, Social interaction test [2, 4]: anxiolytic |
| CC(=O)NC1(c2ccccc2)CCN(CC[C@H](CN(C)C(=O)c2ccccc2)c2ccc(Cl)c(Cl)c2)CC1 [SR48968] | anxiolytic | anxiolytic | anxiolytic | anxiolytic |  |
| COC1(C[S@@+]([O-])c2ccccc2)CCN(CCc2c[nH]c3ccc(F)cc23)CC1 [GR159897] |  |  | anxiolytic | anxiolytic |  |
| CN(Cc1ccccc1)C(=O)[C@H](Cc1ccc2ccccc2c1)NC(=O)[C@@H]1C[C@@H](O)CN1C(=O)c1cn(C)c2ccccc12 [FK888] | anxiolytic |  |  |  |  |
| C[C@H](NC(=O)CNC(=O)C1CCCCC1)C(=O)N[C@H](Cc1c[nH]c2ccccc12)C(=O)N[C@@H](Cc1ccccc1)C(=O)N(C)C [GR100679] (Cyclohexanecarbonyl-GA[dW]F-NMe2) |  | anxiolytic |  |  |  |
